System: PDAC MIA PaCa-2 cells
Assay: 96 h SRB growth inhibition assay, MIA PaCa-2
Format: cell-based, human
Conditions: 96 h SRB IC50
Experimental: Compounds were screened with a 96 h SRB (sulforhodamine B) assay for their antiproliferative activity in a panel of human cancer cell lines comprising lung adenocarcinoma (A549), breast adenocarcinoma (MCF7), and PDAC (MIA PaCa-2 and PANC-1) cell lines, as well as a fetal lung fibroblast-like nononcogenic control cell line (WI-38) (Figure 1f). […] Gemcitabine is also active in these lines at low nanomolar levels, although less so in MIA PaCa-2 (IC50 19 ± 5 nM) and more so in BX-PC3 cells (6 ± 2 nM).
All cell lines were purchased from ATCC and maintained in appropriate medium supplemented with 10% fetal bovine serum (Invitrogen, UK), 2 mM L-glutamine (Invitrogen, Netherlands), and other components as specified by the suppliers. Cell lines were maintained at 37 °C, 5% CO2, and routinely passaged. Drugs were dissolved in H2O and filtered through 0.22 μm pore-size filter units (stock 10 mM) before addition to appropriate cell line media. Cellular growth inhibition was measured using the sulforhodamine B (SRB) assay in 96-well plates as described previously.[78] The 50% inhibitory concentrations (IC50) were determined by taking the mean absorbance at 540 nm for each drug concentration expressed as a percentage of the absorbance of untreated control wells.

O=C1c2ccc3c4c(c(NCCN5CCCC5)cc(c24)C(=O)N1CCCN1CCOCC1)C(=O)N(CCCN1CCOCC1)C3=O [CM03, 2,7-bis(3-morpholinopropyl)-4-((2-(pyrrolidin-1-yl)ethyl)amino)benzo[lmn][3,8]phenanthroline-1,3,6,8(2H,7H)-tetraone]
selectivity for MIA PaCa-2 compared to MCF-7 cells: > 20 fold
